The values that follow come from patent US11680054B2, “Bronchodilating hetero-linked amides” (Arcede Pharma AB, priority 2018, dated 2023).

Values after ≈ are worked out from the molar mass of the structure shown.

The nature of data set [1]: Solubility in phosphate buffer (pH 7.4). The format is physicochemical. As to conditions: aqueous buffer, thermodynamic from solid; phosphate buffer pH 7.4, agitated 20 hours at 37° C. The protocol: The solubilities of 1-(5,8-Dichloro-6,7-dihydroxy-3,4-dihydroisoquinolin-2(1H)-yl)-2-(6-(trifluoromethyl)pyridin-3-ylthio)ethenone (example 1) and the known compound 1-(5,8-Dichloro-6,7-dihydroxy-3,4-dihydroisoquinolin-2(1H)-yl)-2-(6-(trifluoromethyl)pyridine-3-yloxy)ethanone in phosphate buffer (pH 7.4) were determined.
Briefly, 1 mg of the study compounds were weighted into glass vials (two replicates). 2 ml of pH 7.4 phosphate buffer was added into the vials and vials were then agitated (1300 rpm) 20 hours at 37° C. Samples were filtrated using 0.45 μm PVDA syringe filters before analysis. 10 μg/ml and 500 μg/ml standard solutions in acetonitrile:ultra-pure water were prepared using 10 mM DMSO-stock solution. Samples and standards were analyzed from glass vials. The samples were analyzed using UPLC/PDA immediately after preparation. A Waters Acquity ultra high-performance liquid chromatographic (UPLC) system with autosampler, vacuum degasser, photo-diode-array detector (Acquity PDA) and column oven was used.

Data set [2] concerns human bronchiols. Put plainly: Leukotriene D4 induced contraction of human bronchus preparations, in vitro model. As to conditions: pre-treatment with compound at 10 μM; Leukotriene D4 (10 nM) induced contraction of human bronchiols. How it is done:
The usefulness of the compounds, as defined in the preceding embodiments, in treating, pretreating, revoking, mitigating, alleviating and/or preventing a condition of the respiratory apparatus characterized by bronchoconstriction, were evaluated in a complex and relevant in vitro model. The in vitro model was in accordance with the in vitro model disclosed in US 2006-0040254 A1 and Skogvall, S., Berglund, M., Dalence-Guzmán, M. F., Svensson, K., Jönsson, P., Persson, C. G. A and Sterner, O., Pulmonary Pharmacology and Therapeutics, vol 20:3, 2007, p. 273-280. All references disclosed herein are hereby incorporated in their entirety by reference.
In short, lung tissue was obtained from patients undergoing lobectomia or pulmectomia due to lung carcinoma. From the bronchus of this tissue were rectangular oblong preparations obtained. The contraction induced by inflammatory mediators, such as Leukotriene D4, histamine, prostaglandin D2 or acetylcholine, in the presence and absence of the compound to be evaluated, were compared.
The usefulness of the compounds, as defined in the embodiments herein, in treating, revoking, mitigating, alleviating and/or preventing a condition of the respiratory apparatus characterized by bronchoconstriction, were evaluated in a complex and relevant in vitro model, which is described in US 2006-0040254 A1 and Skogvall, S., Berglund, M., Dalence-Guzmán, M. F., Svensson, K., Jönsson, P., Persson, C. G. A and Sterner, O., Pulmonary Pharmacology and Therapeutics, vol 20:3, 2007, p. 273-280. All references disclosed herein are hereby incorporated in their entirety by reference.
The remaining contraction, after pre-treatment with various compound examples at a concentration of 10 μM, of human bronchiols after Leukotriene D4 (10 nM) induced contraction according to the in vitro method described herein above are tabulated below.

The test system of data set [3] is human peripheral blood mononuclear cell (PBMC). Put plainly: Human PBMC in vitro model, LPS induced MCP-1 and LTB-4 levels. The format is cell-based. Conditions: for LTB-4 reduction (%) / MCP-1 reduction (%): LPS 0.1 μg/ml, 24 h. How it is done:
Cryopreserved PBMC's (SeraCare, #72001) are thawed, washed with culture media (RPMI-1640 from Invitrogen, #61870-036+10% heat inactivated fetal bovine serum from Invitrogen, #10082-147+100 U/ml penicillin+100 μg/ml streptomycin) and tested for viability using Trypan blue (PBMC viability=96%). Cells are then resuspended to 1×10^6 cells/ml in culture media and 0.5 ml plated into 24 well culture plates (5×10^5 cells/well) before incubation for 30 minutes at 37° C. with 5% C02 prior to addition of a compound to be assessed (10 μM) or dexamethasone (1 μM). One hour thereafter, LPS (0.1 μg/ml, Salmonella abortus equi, Sigma, #L1887) are added and the cells are incubated for another 24 h before collection of the cell culture supernatants, which are assayed for the presence of MCP-1 and LTB4.
MCP-1 levels are quantified employing a Luminex-based assay according the manufacturer's instructions. Data are collected using a Luminex 100 (Luminex Corporation, Austin, Tex.). Standard curves are generated using a 5-parameter logistic curve fitting equation weighted by 1/y (StarStation V 2.0; Applied Cytometry Systems, Sacramento, Calif.). Each sample reading are interpolated from the appropriate standard curve. Calculated concentrations are multiplied by the appropriate dilution factor when necessary.
LTB4 levels are quantified by ELISA following the manufacturer's instructions. Absorbance readings are detected using a ThermoMax microplate reader (Molecular Devices). Standard curves are generated using a 4-parameter logistic curve fitting equation (SoftMax Pro 4.7.1; Molecular Devices). Each sample reading are interpolated from the appropriate standard curve. Duplicate interpolated sample values are averaged and standard deviations are calculated. Calculated concentrations are multiplied by the appropriate dilution factor.
The reults in lowering MCP-1 and LTB-4 levels compared to vehicle (negative control) and 1 μM dexamethasone (positive control) are given below.

Data set [4] relates to male Sprague Dawley rats. Put plainly: Carbamylcholine-induced bronchospasm in anaesthetised rats (Konzett-Rossler method). The format is in vivo. Conditions: rat; for Bronchodilatating effect on carbamylcholine chloride induced bronchoconstriction: intra-tracheal, administered at 6 mM, smaller increase in pulmonary resistance compared to vehicle; for Total pulmonary resistance increase from baseline post carbamylcholine chloride challenge, Average: single intra-tracheal nebulization of 100 μl at 6 mM, 30 min before carbamylcholine chloride 275 μg/kg iv. The protocol:
The bronchocondilatator effect of example 1 and (2E)-1-(5,8-dichloro-3,4-dihydro-6,7-dihydroxy-2(1H)-isoquinolinyl)-3-[6-(trifluoromethyl)-3-pyridinyl]-2-propen-1-one was evaluated using the Konzett-Rossler method (cf. Konzett H, Rössler R (1940) Versuchsanordung zu Untersuchungen an der Bronchialmuskulatur. Naunyn-Schmiedeberg's Arch Exp Path Pharmakol 192:71-74) in the anaesthetised rat following single intra-tracheal administration.
The study involved male Sprague Dawley rats, weighing between 291.1 g and 347.7 g on the day of the test.
Animals were put on to a water-only fast the day prior to the test. On the day of the test, animals were anaesthetised using sodium pentobarbital at a dose of 60 mg/kg by intraperitoneal route in a volume of 1 mL/kg, then at 2 mg/mL by the intravenous route at a rate of 10 mL/kg/hour throughout the test. The trachea was quickly cannulated to enable artificial respiration. The animals were ventilated with an air flow of approximately 1 mL per 100 g at a rate of 54 cycles/minute. Total pulmonary resistance was measured continuously using a pressure transducer, fitted to a side branch of the tracheal cannula. Arterial blood pressure and heart rate were obtained by placing the telemetric pressure sensor of telemetric transmitter HD-S11 in the carotid artery. A jugular vein was cannulated for the intravenous administration of carbamylcholine chloride. The temperature of the animal was kept between 36.0° C. and 39.3° C. using an electric blanket. At the end of the surgical phase, animals were pre-medicated with a solution of pancuronium bromide at 0.2 mg/mL by the intravenous route at a rate of 10 mL/kg/hour throughout the test to avoid spontaneous respiration. Ventilatory flow was adjusted in such way as to obtain a baseline stabilisation of the pulmonary pressure resistance between 6.5 to 10.5 mmHg (i.e. approximately between 10 to 15% of maximum pulmonary resistance). About 15 minutes after the end of the surgical phase and stabilisation of the pulmonary pressure signal, the animals were dosed with: • 1. Example 1; • 2. (2E)-1-(5,8-dichloro-3,4-dihydro-6,7-dihydroxy-2(1H)-isoquinolinyl)-3-[6-(trifluoromethyl)-3-pyridinyl]-2-propen-1-one; or • 3. Their vehicle
by intra-tracheal nebulization in a volume of 100 μl using a Microsprayer aerosolizer (Penncentury).
Thirty minutes later, carbamylcholine chloride at 275 μg/kg was administered using an infusion pump in a volume of 3.33 mL/kg over a 5-minute period. Total pulmonary resistance, mean, systolic and diastolic arterial blood pressure and heart rate were continuously recorded over the test.
Example 1 was formulated by dissolving 5.5 mg in 2015 μl vehicle (200 mM (2-hydroxypropyl)-β-cyclodextrin, 49 mM L-lysine, 6.2 mM L-ascorbic acid in MilliQ water). […]

The mark [5] stands for this setting: compound 10 μM, compared to vehicle.
Where [6] appears, read: dexamethasone 1 μM (positive control).

Consider `O=C(CSc1ccc(C(F)(F)F)nc1)N1CCc2c(Cl)c(O)c(O)c(Cl)c2C1` [Example 1, 1-(5,8-Dichloro-6,7-dihydroxy-3,4-dihydroisoquinolin-2(1H)-yl)-2-(6-(trifluoromethyl)pyridin-3-ylthio)ethanone], for which, in data set [1], the solubility (commonly how much of the substance goes into solution per volume) at 20 h worked out at 16.6 µg/mL (≈ 36.6 µM). In addition, the “Remaining contraction (%)” value in data set [2] amounted to 7%. The “Reduction of inflammatory markers (MCP-1 and LTB-4)” value in data set [3] (10 μM, LPS stimulated PBMC) is “significant reduction”. For the same compound, in data set [3] (setting [5]), the “LTB-4 reduction (%)” value was found to be 20.7% and the “MCP-1 reduction (%)” value is reported as 70.8%. For the same compound, in data set [4], the “Bronchodilatating effect on carbamylcholine chloride induced bronchoconstriction” value was “had a bronchodilatating effect” and the “Total pulmonary resistance increase from baseline post carbamylcholine chloride challenge, Average” value is on record as 2.33 mmHg.

Regarding `O=C(C1CCCN(c2ccc(F)cn2)C1)N1CCc2c(Cl)c(O)c(O)c(Cl)c2C1` (stereo not drawn) [Example 4, (5,8-Dichloro-6,7-dihydroxy-3,4-dihydroisoquinolin-2(1H)-yl)(1-(5-fluoropyridin-2-yl)piperidin-3-yl)methanone], the “Remaining contraction (%)” value in data set [2] worked out at 51%.

With `Cc1nc(C(F)(F)F)ccc1SCC(=O)N1CCc2c(Cl)c(O)c(O)c(Cl)c2C1` [Example 2, 1-(5,8-Dichloro-6,7-dihydroxy-3,4-dihydroisoquinolin-2(1H)-yl)-2-(2-methyl-6-(trifluoromethyl)pyridin-3-ylthio)ethanone], the “Remaining contraction (%)” value in data set [2] came out at 14%.

Regarding `Cc1cc(C(F)(F)F)cc(SCC(=O)N2CCc3c(Cl)c(O)c(O)c(Cl)c3C2)n1` [Example 3, 1-(5,8-Dichloro-6,7-dihydroxy-3,4-dihydroisoquinolin-2(1H)-yl)-2-(6-methyl-4-(trifluoromethyl)pyridin-2-ylthio)ethanone], in data set [2], the “Remaining contraction (%)” value amounted to 16%.

As to `O=C(/C=C/c1ccc(C(F)(F)F)nc1)N1CCc2c(Cl)c(O)c(O)c(Cl)c2C1` [(2E)-1-(5,8-dichloro-3,4-dihydro-6,7-dihydroxy-2(1H)-isoquinolinyl)-3-[6-(trifluoromethyl)-3-pyridinyl]-2-propen-1-one, reference compound], in data set [4], the “Bronchodilatating effect on carbamylcholine chloride induced bronchoconstriction” value is given as “had a bronchodilatating effect” and the “Total pulmonary resistance increase from baseline post carbamylcholine chloride challenge, Average” value was 2.86 mmHg.

Take `C[C@@H]1C[C@H]2[C@@H]3CCC4=CC(=O)C=C[C@]4(C)[C@@]3(F)[C@@H](O)C[C@]2(C)[C@@]1(O)C(=O)CO` [Dexamethasone, dexamethasone, reference compound]: in data set [3] (setting [6]), the “LTB-4 reduction (%)” value is 23.4% and the “MCP-1 reduction (%)” value is recorded as 15.5%.

`O=C(COc1ccc(C(F)(F)F)nc1)N1CCc2c(Cl)c(O)c(O)c(Cl)c2C1` [1-(5,8-Dichloro-6,7-dihydroxy-3,4-dihydroisoquinolin-2(1H)-yl)-2-(6-(trifluoromethyl)pyridine-3-yloxy)ethanone, reference compound] returned a solubility at 20 h in data set [1] of 76.7 µg/mL (≈ 175 µM).
